Measurements: US8377983B2, “Benzazole derivatives, compositions, and methods of use as aurora kinase inhibitors” (TransTech Pharma, Inc., priority 2006, dated 2013)
pIC50: −log10 of the molar value. Blank lines part the entries; values can stand above or below the molecule they belong to.

How the values were obtained:
[1] = test system: human MiaPaCa-2 pancreatic xenografts; assay: MiaPaCa-2 xenograft model, Example 88 alone and in combination with erlotinib; format: in vivo, athymic mice; conditions: for Median Tumor Size: Example 88 10 mg/kg i.p. b.i.d. 10 days, erlotinib 50 mg/kg p.o. daily 14 days; for complete responders (CR, 100% reduction in tumor size) / partial responders (PR, greater than 50% reduction in tumor size): day 42, out of 8 mice, 10 mg/kg
Experimental: (§1) Compounds were dosed on the following schedules:
2) Erlotinib was dosed 50 mg/kg, p.o., daily for 14 days (days 1-14).
Mice-bearing sc tumors were randomized, and treatment groups consisted of 8 mice.

[2] = test system: HCT-116, BxPC-3, A549, BT-549, LNCaP, MIA Paca-2 tumor cells; assay: In vitro cell proliferation (alamarBlue); format: cell-based; conditions: Homo sapiens; 96 hr incubation; read-out: IC50 against at least one of HCT-116, MIA Paca-2, or LNCaP cells
Experimental: Compounds are tested for their ability to inhibit cell proliferation and viability. The metabolic reduction of alamarBlue™ (Biosource cat. no. DAL1100) was used to measure cell viability.
The anti-proliferative activity of compounds is studied using a panel of tumor cells: HCT-116 (human colorectal carcinoma cell line), BxPC-3 (human pancreatic adenocarcinoma cell line), A549 (human lung carcinoma cell line), BT-549 (human breast carcinoma cell line), LNCaP (human prostate carcinoma cell line), and MIA Paca-2 (human pancreatic carcinoma cell line). These adherent cells (1,000-20,000) are plated in complete media (RPMI-1640, DMEM, F12K, or McCoy's 5A) containing 10% fetal bovine serum (Gibco) in tissue culture treated 96-well plates (Costar) and placed in a humidified incubator at 37° C., […], 5% CO2 for 18-24 hr. Media was removed and replaced with 90 μL fresh media. Compound is diluted in media containing 3% DMSO and added to cells. Background (C^−) relative fluorescent units are determined by incubating alamarBlue™ reagent for 6 hr using untreated cells plated 18 hr earlier. Untreated cells or cells containing compound are incubated for 96 hr. During the last 6 hr of the incubation period, alamarBlue™ reagent (10 μL) was added to each well and incubated in a humidified incubator at 37° C., […], 5% CO2.
AlamarBlue™ reduction is measured in a fluorescence plate reader with instrument settings for excitation at 530 nm and emission at 590 nm. […] Compound IC50 values are determined from % inhibition versus compound concentration curve plots using GraphPad Prism™ according to the 4 parameter logistic equation Y=Bottom+(Top−Bottom)/1+10^((Log EC50−X)*HillSlope)).

[3] = test system: human MiaPaCa-2 pancreatic xenografts; assay: MiaPaCa-2 xenograft model, Example 88 alone and in combination with gemcitabine; format: in vivo, athymic mice; conditions: for Median Tumor Size: Example 88 10 mg/kg i.p. b.i.d. 10 days, gemcitabine 120 mg/kg i.p. q3d×4
Experimental: as §1
2) Gemcitabine was dosed 120 mg/kg, i.p., q3d×4 (days 1, 4, 7, 10).
Drug treatment started when mean tumor sizes reached approximately 120 mg (day 8). Mice-bearing sc tumors were randomized, and treatment groups consisted of 8 mice. The median tumor size for each group at various points in the study are listed below in Table B.

[4] = day 8 of study (treatment start)
[5] = day 42, out of 8 mice, Example 88 10 mg/kg, gemcitabine 120 mg/kg

Structure (SMILES): C#Cc1cccc(Nc2ncnc3cc(OCCOC)c(OCCOC)cc23)c1 [Erlotinib, erlotinib, reference compound]
Median Tumor Size [1, 4]: 120 mg
Median Tumor Size ([1]; day 10 of study): 144 mg
Median Tumor Size ([1]; day 13 of study): 192 mg
Median Tumor Size ([1]; day 16 of study): 267 mg
Median Tumor Size ([1]; day 20 of study): 363 mg
inhibition of tumor growth relative to vehicle-treated tumors ([1]; day 23, Example 88 10 mg/kg, erlotinib 50 mg/kg): 16%
Median Tumor Size ([1]; day 23 of study): 507 mg
Median Tumor Size ([1]; day 27 of study): 700 mg
Median Tumor Size ([1]; day 30 of study): 908 mg
Median Tumor Size ([1]; day 34 of study): 1224 mg
Median Tumor Size ([1]; day 37 of study): 1296 mg
complete responders (CR, 100% reduction in tumor size) ([1]; erlotinib 50 mg/kg): 0/8
partial responders (PR, greater than 50% reduction in tumor size) ([1]; erlotinib 50 mg/kg): 0/8
Median Tumor Size ([1]; day 42 of study): 1368 mg

Structure (SMILES): CC(C)c1ccccc1Nc1nc2cc(C(=O)Nc3ccc4cn[nH]c4c3)c(N3CCN(C)CC3)cc2[nH]1 [Example 48, 2-(2-Isopropylphenylamino)-6-(4-methyl-piperazin-1-yl)-1H-benzimidazole-5-carboxylic acid (1H-indazol-6-yl)-amide]
pIC50 [2]: ≥ 5.52

Structure (SMILES): CN1CCN(c2cc3[nH]c(Nc4ccccc4C(F)(F)F)nc3cc2C(=O)Nc2ccc3cn[nH]c3c2)CC1 [Example 50, 6-(4-Methylpiperazin-1-yl)-2-(2-trifluoromethyl-phenylamino)-1H-benzimidazole-5-carboxylic acid (1H-indazol-6-yl)-amide]
pIC50 [2]: ≥ 5.52

Structure (SMILES): O=C(Nc1ccc2cn[nH]c2c1)c1cc2nc(Nc3ccccc3C(F)(F)F)[nH]c2cc1N1CCOCC1 [Example 54, 6-Morpholin-4-yl-2-(2-trifluoromethylphenylamino)-1H-benzimidazole-5-carboxylic acid (1H-indazol-6-yl)-amide]
pIC50 [2]: ≥ 5.52

Structure (SMILES): O=C(Nc1ccc2cn[nH]c2c1)c1cc2nc(Nc3ccccc3C(F)(F)F)[nH]c2cc1N1CCCCC1 [Example 57, 6-Piperidin-1-yl-2-(2-trifluoromethyl-phenylamino)-1H-benzimidazole-5-carboxylic acid (1H-indazol-6-yl)-amide]
pIC50 [2]: ≥ 5.52

Structure (SMILES): CCc1cccc(CC)c1Nc1nc2cc(C(=O)Nc3ccc4cn[nH]c4c3)ccc2[nH]1 [Example 91, 2-(2,6-diethylphenylamino)-3H-benzimidazole-5-carboxylic acid (1H-indazol-6-yl)-amide]
complete responders (CR, 100% reduction in tumor size) ([1]; erlotinib 50 mg/kg): 0/8
partial responders (PR, greater than 50% reduction in tumor size) ([1]; erlotinib 50 mg/kg): 0/8

Structure (SMILES): Nc1ccn([C@@H]2O[C@H](CO)[C@@H](O)C2(F)F)c(=O)n1 [Gemcitabine, reference compound]
Median Tumor Size [3, 4]: 120 mg
Median Tumor Size ([3]; day 10 of study): 144 mg
Median Tumor Size ([3]; day 13 of study): 144 mg
Median Tumor Size ([3]; day 16 of study): 153 mg
Median Tumor Size ([3]; day 20 of study): 221 mg
inhibition of tumor growth relative to vehicle-treated tumors ([3]; day 23, Example 88 10 mg/kg, gemcitabine 120 mg/kg): 60%
Median Tumor Size ([3]; day 23 of study): 246 mg
Median Tumor Size ([3]; day 27 of study): 336 mg
Median Tumor Size ([3]; day 30 of study): 472 mg
Median Tumor Size ([3]; day 34 of study): 675 mg
Median Tumor Size ([3]; day 37 of study): 824 mg
complete responders (CR, 100% reduction in tumor size) [3, 5]: 0/8
partial responders (PR, greater than 50% reduction in tumor size) [3, 5]: 0/8
Median Tumor Size ([3]; day 42 of study): 988 mg

Further lines, results first:

pIC50 [2]: ≥ 5.52
Structure (SMILES): CC(C)c1ccccc1Nc1nc2cc(C(=O)Nc3ccc4cn[nH]c4c3)ccc2[nH]1 [Example 27, 2-(2-Isopropylphenylamino)-3H-benzimidazole-5-carboxylic acid (1H-indazol-6-yl)-amide]

pIC50 [2]: ≥ 5.52
Structure (SMILES): O=C(Nc1ccc2cn[nH]c2c1)c1ccc2[nH]c(Nc3ccccc3C(F)(F)F)nc2c1 [Example 35, 2-(2-Trifluoromethylphenylamino)-3H-benzimidazole-5-carboxylic acid (1H-indazol-6-yl)-amide]

pIC50 [2]: ≥ 5.52
Structure (SMILES): Cc1cccnc1Nc1nc2cc(C(=O)Nc3ccc4cn[nH]c4c3)ccc2[nH]1 [Example 36, 2-(3-Methylpyridin-2-ylamino)-3H-benzimidazole-5-carboxylic acid(1H-indazol-6-yl)-amide]

pIC50 [2]: ≥ 5.52
Structure (SMILES): Cc1cccnc1Nc1nc2cc(C(=O)Nc3ccc4cn[nH]c4c3)c(N3CCN(C)CC3)cc2[nH]1 [Example 58, 6-(4-Methyl-piperazin-1-yl)-2-(3-methyl-pyridin-2-ylamino)-1H-benzimidazole-5-carboxylic acid (1H-indazol-6-yl)-amide]

pIC50 [2]: ≥ 5.52
Structure (SMILES): Cc1cccnc1Nc1nc2cc(C(=O)Nc3ccc4cn[nH]c4c3)c(N3CCOCC3)cc2[nH]1 [Example 60, 2-(3-Methylpyridin-2-ylamino)-6-morpholin-4-yl-1H-benzimidazole-5-carboxylic acid (1H-indazol-6-yl)-amide]
